This is an account of results in patent publication US20240285770A1, “PRECIPITATION SUPPRESSING AGENT” (Nippon Shinyaku Co., Ltd., priority 2021, published 2024).

Like-named read-outs stand apart in the source and are kept apart here.

A short description of series [1]: Plasma concentrations and estimation of urinary PMO No. 12 concentration after administration to cynomolgus monkeys. In kind it is in vivo. Particulars: male cynomolgus monkeys; for Plasma concentration 0 hr (a) / Plasma concentration 0.25 hr (b) / Plasma concentration 0.5 hr (c) / Plasma concentration 1 hr (d) / Plasma concentration 2 hr (e) / Plasma concentration 6 hr (f) / Plasma concentration 24 hr (g): average of 3 animals; for Estimated urinary concentration at 0.25 hr (l): amount of urine up to 0.25 hr assumed 3.91 mL; for Average plasma concentration from 0 hr to 0.25 hr (j): average of values a and b; for Amount excreted up to 0.25 hr (k): calculated by using CLtot. The method, then: (§1) For setting the test conditions such as the concentrations of sugar and antisense oligomers assumed to be in urine, D-mannitol, which is […] and corresponds to a reduced form of D-mannose, and antisense oligomers were administered to cynomolgus monkeys, and the urinary concentration shortly after administration were estimated from the changes in plasma concentrations and the total body clearance.
From the values, the area under the plasma concentration-time curve (AUC0-24 hr) up to 24 hours after administration and the total body clearance (CLtot) were calculated (the values h and i in Table 3). Further, the plasma concentrations at 0 hours and 0.25 hours after administration (the values a and b in Table 3) were averaged to obtain the average plasma concentration from 0 hours to 0.25 hours (the value j in Table 3), and the amount of antisense oligomer excreted per body weight up to 0.25 hours (the value k in Table 3) was calculated by using CLtot (the value i in Table 3). The amount of urine up to 0.25 hours after administration was assumed to be 3.91 mL, based on the fact that the daily amount of urine of cynomolgus monkeys (body weight: 5 kg) was 375 mL, and the urinary antisense oligomer concentration at 0.25 hours after administration was then estimated (the value 1 in Table 3).

The nature of series [2]: Plasma concentrations and estimation of urinary D-mannitol concentration after administration to cynomolgus monkeys. In kind it is in vivo. Conditions: 500 mg/kg; for concentration at 4 h / concentration at 1 h / concentration at 8 h / AUC(0-t) / clearance: cynomolgus monkey, plasma; for concentration at 4 h / concentration at 1 h / concentration at 8 h / Plasma concentration 0 hr (a) / Plasma concentration 0.25 hr (b) / Plasma concentration 24 hr (f): average of 3 animals; for concentration at 1 h: read-out: Plasma concentration 1 hr (c); for concentration at 8 h: read-out: Plasma concentration 8 hr (e); for AUC(0-t): read-out: AUC0-24 hr (g); for clearance: read-out: CLtot (h) (converted); for Estimated urinary concentration at 0.25 hr (k): amount of urine up to 0.25 hr assumed 3.91 mL; for Average plasma concentration from 0 hr to 0.25 hr (i): average of values a and b; for Amount excreted up to 0.25 hr (j): calculated by using CLtot. The method, then: as §1
20% D-mannitol was diluted to 50 mg/mL with physiological saline, the diluted solution thus obtained was administered at 10 mL/kg to 3 male and 3 female cynomolgus monkeys aged 1 to 2 year-old, and the plasma concentrations were then measured at 0 hours (immediately after administration), 0.25 hours, 1 hour, 4 hours, 8 hours, and 24 hours after administration (each of the values a, b, c, d, e, and f in Table 2 was an average value of 3 animals). From the values, the area under the plasma concentration-time curve (AUC0-24 hr) up to 24 hours after administration and the total body clearance (CLtot) were calculated (the values g and h in Table 2). Further, the plasma concentrations at 0 hours and 0.25 hours after administration (the values a and b in Table 2) were averaged to obtain the average plasma concentration from 0 hours to 0.25 hours (the value i in Table 2), and the amount of D-mannitol excreted per body weight up to 0.25 hours (the value j in Table 2) was calculated by using CLtot (the value h in Table 2). The amount of urine up to 0.25 hours after administration was assumed to be 3.91 mL, based on the fact that the daily amount of urine of cynomolgus monkeys (body weight: 5 kg) was 375 mL (B Clark, D A Smith Pharmacokinetics and toxicity testing. Crit Rev Toxicol. 1984; 12 (4): 343-85.), and the urinary mannitol concentration at 0.25 hours after administration was then estimated (the value k in Table 2).
The estimated urinary concentration obtained as above was averaged, and the urinary concentration shortly after administration in a case of administering 500 mg/kg of D-mannitol was estimated to be 127.5 mg/mL. Since D-mannitol is rarely distributed in the body and rapidly excreted in urine without undergoing metabolism, it can be assumed that there is a linear relationship between the amount administered and the urinary concentration. Accordingly, by using the following formulas, the urinary concentration was converted into the amount of D-mannitol administered, and the amount administered was then converted into concentrations in the formulations at the time of administration (at the time of use) according to the body weight and the amount of dosing solution.

As for “PMO No. 12: phosphorodiamidate morpholino antisense oligomer, sequence CCTCCGGTTCTGAAGGTGTTC, 5′-end Group(2) (all phosphorodiamidate morpholino (PMO); further chemistry not fully specified)”, in series [1] (10 mg/kg), the “AUC0-24 hr (h)” value was 50.25 µg·h/mL, the “CLtot (i)” value is 3.317 mL/min/kg, the “Plasma concentration 0 hr (a)” value is 137.6 µg/mL and the “Plasma concentration 0.25 hr (b)” value was 30.95 µg/mL. Further, in series [1] (10 mg/kg), the “Plasma concentration 0.5 hr (c)” value was 19.06 µg/mL, the “Plasma concentration 1 hr (d)” value was 9.79 µg/mL, the “Plasma concentration 2 hr (e)” value was 4.328 µg/mL and the “Plasma concentration 6 hr (f)” value is given as “Below detection limit”. In addition, in series [1] (10 mg/kg), the “Plasma concentration 24 hr (g)” value is recorded as “Below detection limit”, the “Estimated urinary concentration at 0.25 hr (l)” value was 5.362 mg/mL, the “Average plasma concentration from 0 hr to 0.25 hr (j)” value was 84.28 µg/mL and the “Amount excreted up to 0.25 hr (k)” value is 4193 µg/kg. Moreover, in series [1] (60 mg/kg), the “AUC0-24 hr (h)” value is 269.3 µg·h/mL, the “CLtot (i)” value is 3.713 mL/min/kg, the “Plasma concentration 0 hr (a)” value is 805.9 µg/mL and the “Plasma concentration 0.25 hr (b)” value is 154.7 µg/mL. Further, in series [1] (60 mg/kg), the “Plasma concentration 0.5 hr (c)” value was 100.9 µg/mL, the “Plasma concentration 1 hr (d)” value is 45.93 µg/mL, the “Plasma concentration 2 hr (e)” value is 18.46 µg/mL and the “Plasma concentration 6 hr (f)” value was 1.045 µg/mL. Moreover, in series [1] (60 mg/kg), the “Plasma concentration 24 hr (g)” value is given as “Below detection limit”, the “Estimated urinary concentration at 0.25 hr (l)” value is on record as 34.21 mg/mL, the “Average plasma concentration from 0 hr to 0.25 hr (j)” value is 480.3 µg/mL and the “Amount excreted up to 0.25 hr (k)” value was 26753 µg/kg.

As to `OC[C@@H](O)[C@@H](O)[C@H](O)[C@H](O)CO` [D-Mannitol, D-mannitol], in series [2] (female cynomolgus monkeys), the concentration at 4 h is 90.3 µg/mL, the concentration at 1 h is 720 µg/mL, the concentration at 8 h was 4.87 µg/mL and the AUC(0-t) was 2830 µg·h/mL. Besides, in series [2] (female cynomolgus monkeys), the clearance was 2.95 mL/min/kg, the “Plasma concentration 0 hr (a)” value was 2950 µg/mL, the “Plasma concentration 0.25 hr (b)” value was 1490 µg/mL and the “Plasma concentration 24 hr (f)” value is listed as “Below detection limit”. Moreover, in series [2] (female cynomolgus monkeys), the “Estimated urinary concentration at 0.25 hr (k)” value was 126 mg/mL, the “Average plasma concentration from 0 hr to 0.25 hr (i)” value was 2220 µg/mL and the “Amount excreted up to 0.25 hr (j)” value was 98235 µg/kg. Also, in series [2] (male cynomolgus monkeys), the concentration at 4 h is 89.2 µg/mL, the concentration at 1 h is 651 µg/mL, the concentration at 8 h was 4.67 µg/mL and the AUC(0-t) was 2680 µg·h/mL. In series [2] (male cynomolgus monkeys), the clearance was 3.12 mL/min/kg, the “Plasma concentration 0 hr (a)” value is 2810 µg/mL, the “Plasma concentration 0.25 hr (b)” value was 1510 µg/mL and the “Plasma concentration 24 hr (f)” value is listed as “Below detection limit”. In addition, in series [2] (male cynomolgus monkeys), the “Estimated urinary concentration at 0.25 hr (k)” value is 129 mg/mL, the “Average plasma concentration from 0 hr to 0.25 hr (i)” value is 2160 µg/mL and the “Amount excreted up to 0.25 hr (j)” value is 100980 µg/kg. The “urinary concentration shortly after administration (estimated, averaged)” value in series [2] (cynomolgus monkeys, average of male and female estimates) is reported as 127.5 mg/mL.
